# Measurements published in patent publication US20200231638A1, “STABILIZED ANTI-MICROBIAL PEPTIDES” (priority 2015, published 2020).
# Bridge positions count the residues as written; N and C are the ends. Square brackets hold non-standard residues; d marks the D form. Ends that are not written are not given here. Peptide text beside a SMILES is read from it. R8 = C=CCCCCCC[C@@](C)(N)C(=O)O; S5 = C=CCCC[C@](C)(N)C(=O)O; Nle = CCCC[C@H](N)C(=O)O
# Tests used:
# P. aeruginosa = assay type: cell-based, Pseudomonas aeruginosa
# Procedure, shortened: (§1)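 Read-out is visible growth: the MIC is the lowest peptide concentration showing none after 20-24 hours at 37° C. Bacteria in refined (anion-exchanged) Mueller-Hinton broth were seeded at a final 5×10^5 CFU/ml onto water-based peptide serial dilutions.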
# E. coli = assay type: cell-based, Escherichia coli
# Procedure, shortened: as §1
# S. aureus = assay type: cell-based, Staphylococcus aureus
# Procedure, shortened: as §1
# S. marcescens = assay type: cell-based
# Protocol: Antimicrobial Activity Assay:
# The following microbroth dilution protocol was adapted to determine the minimum inhibitory concentration (MIC) of each peptide. First, Mueller-Hinton broth (MHB) was passed through an anion exchange column to remove polyanionic species and generate refined MHB. […] Briefly, bacterial cells was grown overnight in refined MHB at 37° C. and then diluted and allowed to grow again for several hours. Serial dilutions of peptide stocks in water (10 μl) were prepared using clear round-bottom polypropylene 96-well plates. Then 90 μl of bacteria in refined MHB was added to give a final inoculum of 5×10^5 CFU/ml. The plates were then covered with porous tape to reduce evaporation, and incubated for 20-24 hours at 37° C. The MIC is the minimum peptide concentration at which no visible growth was observed.
# human red blood cells = assay type: cell-based
# Procedure, shortened: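 Washed human RBCs as 1% (v/v) suspension in phosphate-buffered saline incubated 1 h at 37° C with serially diluted peptides. Hemoglobin release in supernatant measured spectrophotometrically (570 nm), % hemolysis relative to untreated and 1% Triton-X100 controls; MHC defined as concentration giving less than 1% release.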
# B. cereus = assay type: cell-based, Bacillus cereus
# Procedure, shortened: as §1
# [1] = Circular dichroism spectroscopy (α-helicity); assay type: physicochemical; settings: for α-helicity by CD in water, absence of TFE: aqueous solution, no TFE
# Protocol: To determine the helicity of the panel of stapled magainin II analogues, the peptides were dissolved in water using CD spectroscopy in the presence and absence of trifluoroethanol (TFE; 50% v/v), a helix-promoting solvent. […] Levels of helicity ranged from approximately 34% for MagStap 2 to 100% for MagStap 1 and 3, as compared to an idealized α-helical peptide. […] When the helicity in the presence of TFE was measured, most of the stapled analogues were 50-60% helical except for MagStap 3, which retained 100% α-helical content.
# Circular Dichroism Spectroscopy:
# Compounds were dissolved in an aqueous solution (e.g. 5 mM potassium phosphate solution at pH 7, or distilled H2O, to concentrations of 25-50 μM). Circular dichroism (CD) spectra were obtained on a spectropolarimeter (Aviv) using standard measurement parameters (e.g., temperature, 37° C.; wavelength, 190-260 nm; step resolution, 0.5 nm; speed, 20 nm/sec; accumulations, 10; response, 1 sec; bandwidth, 1 nm; path length, 0.1 cm). The α-helical content of each peptide was calculated by dividing the mean residue ellipticity by the reported value for a model helical decapeptide (see, e.g., Yang et al., Meth Enzymol. 130:208 (1986)).
MIC P. aeruginosa (P. aeruginosa) [µg/mL],MIC E. coli (E. coli) [µg/mL],MIC S. aureus (S. aureus) [µg/mL],MIC S. marcescens (S. marcescens) [µg/mL],MIC B. cereus (B. cereus) [µg/mL],α-helicity by CD in the presence of TFE ([1]; TFE 50% v/v) [%],"α-helicity by CD in water, absence of TFE [1]",Compound,hemolytic activity (in words) (human red blood cells)
1.6,3.3,6.3,>50,3.1,–,–,"GIGKFLKKAKKFGKAFVKILKK-NH2 [Pexiganan, reference compound]",no hemolysis
–,3.1,–,>50,6.2,100,100%,CCCC[C@H](NC(=O)[C@@H](NC(=O)[C@H](CCC(=O)O)NC(=O)[C@H](C)NC(=O)[C@@H](NC(=O)[C@]1(C)CCCC=CCCCCCC[C@@](C)(NC(=O)[C@H](C)NC(=O)[C@H](Cc2c[nH]cn2)NC(=O)[C@H](CC(C)C)NC(=O)[C@H](Cc2ccccc2)NC(=O)[C@H](CCCCN)NC(=O)CNC(=O)[C@@H](NC(=O)CN)[C@@H](C)CC)C(=O)N[C@@H](CCCCN)C(=O)N[C@@H](CCCCN)C(=O)N[C@@H](Cc2ccccc2)C(=O)N[C@@H](C)C(=O)N[C@@H](CCCCN)C(=O)N[C@@H](C)C(=O)N1)C(C)C)[C@@H](C)CC)C(=O)N[C@@H](CC(N)=O)C(=O)N[C@@H](CO)C(N)=O [MagStap 3] (H-GIGKFLHA[R8]KKFAKA[S5]VAEI[Nle]NS-NH2; staple 9-16; N-terminus assumed),–
3.1,3.1,3.1,>50,3.1,–,–,CC[C@H](C)[C@H](NC(=O)CN)C(=O)NCC(=O)N[C@@H](CCCCN)C(=O)N[C@@H](Cc1ccccc1)C(=O)N[C@@H](CC(C)C)C(=O)N[C@@H](CCCCN)C(=O)N[C@]1(C)CCCCCCC=CCCC[C@@](C)(C(=O)N[C@@H](Cc2ccccc2)C(=O)N[C@H](C(=O)N[C@@H](CCCCN)C(=O)N[C@H](C(=O)N[C@@H](CC(C)C)C(=O)N[C@@H](CCCCN)C(=O)N[C@@H](CCCCN)C(N)=O)[C@@H](C)CC)C(C)C)NC(=O)[C@H](CCCCN)NC(=O)CNC(=O)[C@H](Cc2ccccc2)NC(=O)[C@H](CCCCN)NC(=O)[C@H](CCCCN)NC(=O)[C@H](C)NC1=O [PexStap 2] (H-GIGKFLK[R8]AKKFGK[S5]FVKILKK-NH2; staple 8-15; N-terminus assumed),–
–,12.5,–,>50,12.5,–,100%,CCCC[C@H](NC(=O)[C@@H](NC(=O)[C@H](CCC(=O)O)NC(=O)[C@H](C)NC(=O)[C@@H](NC(=O)[C@H](Cc1ccccc1)NC(=O)[C@H](C)NC(=O)[C@]1(C)CCCC=CCCCCCC[C@@](C)(NC(=O)[C@H](CC(C)C)NC(=O)[C@H](Cc2ccccc2)NC(=O)[C@H](CCCCN)NC(=O)CNC(=O)[C@@H](NC(=O)CN)[C@@H](C)CC)C(=O)N[C@@H](C)C(=O)N[C@@H](C)C(=O)N[C@@H](CCCCN)C(=O)N[C@@H](CCCCN)C(=O)N[C@@H](Cc2ccccc2)C(=O)N[C@@H](C)C(=O)N1)C(C)C)[C@@H](C)CC)C(=O)N[C@@H](CC(N)=O)C(=O)N[C@@H](CO)C(N)=O [MagStap 1] (H-GIGKFL[R8]AAKKFA[S5]AFVAEI[Nle]NS-NH2; staple 7-14; N-terminus assumed),–
–,12.5,–,>50,12.5,–,–,CCCC[C@H](NC(=O)[C@@H](NC(=O)[C@H](CCC(=O)O)NC(=O)[C@]1(C)CCCC=CCCCCCC[C@@](C)(NC(=O)[C@H](CCCCN)NC(=O)[C@H](C)NC(=O)[C@H](C)NC(=O)[C@H](Cc2c[nH]cn2)NC(=O)[C@H](CC(C)C)NC(=O)[C@H](Cc2ccccc2)NC(=O)[C@H](CCCCN)NC(=O)CNC(=O)[C@@H](NC(=O)CN)[C@@H](C)CC)C(=O)N[C@@H](Cc2ccccc2)C(=O)N[C@@H](C)C(=O)N[C@@H](CCCCN)C(=O)N[C@@H](C)C(=O)N[C@@H](Cc2ccccc2)C(=O)N[C@@H](C(C)C)C(=O)N1)[C@@H](C)CC)C(=O)N[C@@H](CC(N)=O)C(=O)N[C@@H](CO)C(N)=O [MagStap 5] (H-GIGKFLHAAK[R8]FAKAFV[S5]EI[Nle]NS-NH2; staple 11-18; N-terminus assumed),lowest hemolytic activity
–,3.1,–,>50,3.1,–,approximately 34%,CCCC[C@H](NC(=O)[C@@H](NC(=O)[C@H](CCC(=O)O)NC(=O)[C@H](C)NC(=O)[C@@H](NC(=O)[C@H](Cc1ccccc1)NC(=O)[C@]1(C)CCCC=CCCCCCC[C@@](C)(NC(=O)[C@H](Cc2c[nH]cn2)NC(=O)[C@H](CC(C)C)NC(=O)[C@H](Cc2ccccc2)NC(=O)[C@H](CCCCN)NC(=O)CNC(=O)[C@@H](NC(=O)CN)[C@@H](C)CC)C(=O)N[C@@H](C)C(=O)N[C@@H](CCCCN)C(=O)N[C@@H](CCCCN)C(=O)N[C@@H](Cc2ccccc2)C(=O)N[C@@H](C)C(=O)N[C@@H](CCCCN)C(=O)N1)C(C)C)[C@@H](C)CC)C(=O)N[C@@H](CC(N)=O)C(=O)N[C@@H](CO)C(N)=O [MagStap 2] (H-GIGKFLH[R8]AKKFAK[S5]FVAEI[Nle]NS-NH2; staple 8-15; N-terminus assumed),–
1.6,1.6,3.1,>50,3.1,–,–,CC[C@H](C)[C@H](NC(=O)CN)C(=O)NCC(=O)N[C@@H](CCCCN)C(=O)N[C@@H](Cc1ccccc1)C(=O)N[C@@H](CC(C)C)C(=O)N[C@@H](CCCCN)C(=O)N[C@@H](CCCCN)C(=O)N[C@@H](C)C(=O)N[C@@H](CCCCN)C(=O)N[C@]1(C)CCCCCCC(O)C(O)CCC[C@@](C)(C(=O)N[C@H](C(=O)N[C@@H](CC(C)C)C(=O)N[C@@H](CCCCN)C(=O)N[C@@H](CCCCN)C(N)=O)[C@@H](C)CC)NC(=O)[C@H](C(C)C)NC(=O)[C@H](Cc2ccccc2)NC(=O)[C@H](C)NC(=O)[C@H](CCCCN)NC(=O)CNC(=O)[C@H](Cc2ccccc2)NC1=O (stereo partly drawn) [PexDiol 5],significant hemolytic activity
1.6,3.1,3.1,>50,6.3,–,–,CC[C@H](C)[C@H](NC(=O)CN)C(=O)NCC(=O)N[C@@H](CCCCN)C(=O)N[C@@H](Cc1ccccc1)C(=O)N[C@@H](CC(C)C)C(=O)N[C@@H](CCCCN)C(=O)N[C@@H](CCCCN)C(=O)N[C@@H](C)C(=O)N[C@@H](CCCCN)C(=O)N[C@@H](CCCCN)C(=O)N[C@]1(C)CCCCCCC=CCCC[C@@](C)(C(=O)N[C@@H](CC(C)C)C(=O)N[C@@H](CCCCN)C(=O)N[C@@H](CCCCN)C(N)=O)NC(=O)[C@H](CCCCN)NC(=O)[C@H](C(C)C)NC(=O)[C@H](Cc2ccccc2)NC(=O)[C@H](C)NC(=O)[C@H](CCCCN)NC(=O)CNC1=O [PexStap 6] (H-GIGKFLKKAKK[R8]GKAFVK[S5]LKK-NH2; staple 12-19; N-terminus assumed),–
